Values belong to the molecule of their own block, whether it stands above or below them. Calls of active or inactive are those of the source. The rule behind the calls is not given here. Positions of bridges follow the written chain, without caps; N, C: chain ends. Non-standard residues stand in square brackets, D forms with d. Residues, ends and D or L forms follow the SMILES beside them. dPhe(4-Cl) = N[C@H](Cc1ccc(Cl)cc1)C(=O)O; d2Nal = N[C@H](Cc1ccc2ccccc2c1)C(=O)O; d3Pal = N[C@H](Cc1cccnc1)C(=O)O; Dab = NCC[C@H](N)C(=O)O; Dap = NC[C@H](N)C(=O)O
Experiments:
Rattus norvegicus [1] = assay: Evaluated for the ovulation effects in the rat by administering the drug at the doses (25 ug); 4/5; format: functional, organism-based
Rattus norvegicus [2] = assay: Evaluated for the ovulation effects in the rat by administering the drug at the doses (50 ug); 0/7; format: functional, organism-based
Rattus norvegicus [3] = assay: Evaluated for the ovulation effects in the rat by administering the drug at the doses (10 ug); 5/5; format: functional, organism-based
Rattus norvegicus [4] = assay: Evaluated for the ovulation effects in the rat by administering the drug at the doses (25 ug); 0/4; format: functional, organism-based
[5] = target: T1, Gonadotropin-releasing hormone receptor (Rattus norvegicus, UniProt P30969); assay: Competitive radioligand binding assay, in human HEK293 cells stably transfected with the rat Gonadotropin-releasing hormone receptor; format: cell-based
T1 sequence (P30969 whole entry): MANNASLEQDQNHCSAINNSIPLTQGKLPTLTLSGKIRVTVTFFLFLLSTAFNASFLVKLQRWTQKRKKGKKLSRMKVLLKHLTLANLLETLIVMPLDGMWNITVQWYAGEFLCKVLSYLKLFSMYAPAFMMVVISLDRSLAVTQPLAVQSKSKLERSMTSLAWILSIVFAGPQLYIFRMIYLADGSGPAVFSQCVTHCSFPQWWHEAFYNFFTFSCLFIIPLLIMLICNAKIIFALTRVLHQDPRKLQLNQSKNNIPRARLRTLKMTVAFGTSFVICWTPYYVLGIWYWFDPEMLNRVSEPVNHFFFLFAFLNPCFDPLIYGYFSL

Rattus norvegicus [6] = assay: Evaluated for the ovulation effects in the rat by administering the drug at the doses (2.5 ug); 14/16; format: functional, organism-based
Rattus norvegicus [7] = assay: Evaluated for the ovulation effects in the rat by administering the drug at the doses (10 ug); 1/6; format: functional, organism-based
Rattus norvegicus [8] = assay: Evaluated for the ovulation effects in the rat by administering the drug at the doses (25 ug); 0/3; format: functional, organism-based
Rattus norvegicus [9] = assay: Evaluated for the ovulation effects in the rat by administering the drug at the doses (5 ug); 3/3; format: functional, organism-based
Rattus norvegicus [10] = assay: Evaluated for the ovulation effects in the rat by administering the drug at the doses (10 ug); 4/6; format: functional, organism-based
Rattus norvegicus [11] = assay: Evaluated for the ovulation effects in the rat by administering the drug at the doses (25 ug); 0/5; format: functional, organism-based
Rattus norvegicus [12] = assay: Evaluated for the ovulation effects in the rat by administering the drug at the doses (25 ug); 0/8; format: functional, organism-based

SMILES: CC[C@H](NC(C)=O)C(=O)N[C@@H](Cc1ccc(Cl)cc1)C(=O)N[C@@H](Cc1c[nH]c2ccccc12)C(=O)N[C@@H](CC(=O)O)C(=O)N[C@@H]1CCC(=O)NCCCC[C@@H](C(=O)N2CCC[C@@H]2C(=O)N[C@@H](C)C(N)=O)NC(=O)[C@H](CC(C)C)NC(=O)[C@@H](CCCN=C(N)N)NC1=O (stereo in doubt; 13)
Activity (Rattus norvegicus [1]): Weak activity
Activity (Rattus norvegicus [2]): Active

SMILES: CC(=O)N[C@H](Cc1ccc2ccccc2c1)C(=O)N[C@H](Cc1ccc(Cl)cc1)C(=O)N[C@H](Cc1cccnc1)C(=O)N[C@H]1CC(=O)NC[C@@H](C(N)=O)NC(=O)[C@@H]2CCCN2C(=O)[C@@H]2CCNC(=O)CNC(=O)C[C@H](NC1=O)C(=O)N[C@H](CCCN=C(N)N)C(=O)N[C@@H](CC(C)C)C(=O)N2
Activity (Rattus norvegicus [9]): inactive
Activity (Rattus norvegicus [10]): Weak activity
Activity (Rattus norvegicus [11]): Active
Ki [5]: 0.35 nM

Further lines, with some results ahead:

Ki [5]: 0.2 nM
SMILES: CC(=O)N[C@H](Cc1ccc2ccccc2c1)C(=O)N[C@H](Cc1ccc(Cl)cc1)C(=O)N[C@H](Cc1cccnc1)C(=O)N[C@H]1CC(=O)NC[C@@H](C(N)=O)NC(=O)[C@@H]2CCCN2C(=O)[C@@H]2CCNC(=O)[C@H](Cc3ccccc3)NC(=O)CC[C@H](NC1=O)C(=O)N[C@H](CCCNC(N)=O)C(=O)N[C@@H](CC(C)C)C(=O)N2
Activity (Rattus norvegicus [3]): inactive
Activity (Rattus norvegicus [4]): Active

Ki [5]: 0.16 nM
SMILES: CC(=O)N[C@H](Cc1ccc2ccccc2c1)C(=O)N[C@H](Cc1ccc(Cl)cc1)C(=O)N[C@H](Cc1cccnc1)C(=O)N[C@H]1CC(=O)NC[C@@H](C(N)=O)NC(=O)[C@@H]2CCCN2C(=O)[C@@H]2CCNC(=O)CNC(=O)CC[C@H](NC1=O)C(=O)N[C@H](CCCN=C(N)N)C(=O)N[C@@H](CC(C)C)C(=O)N2 (Ac-[d2Nal][dPhe(4-Cl)][d3Pal]DE[dR]L[Dab]P[Dap]-NH2; lactam 4-10; linker 5-8 via G)
Activity (Rattus norvegicus [6]): Weak activity
Activity (Rattus norvegicus [7]): Weak activity
Activity (Rattus norvegicus [8]): Active

Ki [5]: 0.27 nM
SMILES: CC(=O)N[C@H](Cc1ccc2ccccc2c1)C(=O)N[C@H](Cc1ccc(Cl)cc1)C(=O)N[C@H](Cc1cccnc1)C(=O)N[C@H]1CC(=O)NC[C@@H](C(N)=O)NC(=O)[C@@H]2CCCN2C(=O)[C@@H]2CCCNC(=O)[C@H](Cc3ccccc3)NC(=O)CC[C@H](NC1=O)C(=O)N[C@H](CCCN=C(N)N)C(=O)N[C@@H](CC(C)C)C(=O)N2
Activity (Rattus norvegicus [3]): inactive
Activity (Rattus norvegicus [12]): Active

Source: ChEMBL document CHEMBL1132957, “Design of potent dicyclic (4-10/5-8) gonadotropin releasing hormone (GnRH) antagonists” (J Med Chem, 2000)
